Tests used:
[1] = Measurement of average particle size (Z average, dynamic light scattering) of colorant dispersed component in PBS dispersion; assay type: physicochemical; conditions: 20 μM DMSO colorant solution diluted 10-fold with PBS to 2 μM, measured within 5 minutes
Procedure: The average particle size of the colorant dispersed component contained in the colorant dispersion I can be measured as follows.
A colorant solution is obtained by dissolving a colorant for fluorescent labeling in an organic solvent that can dissolve the colorant for fluorescent labeling so that the concentration is 20 μM. The colorant solution is diluted 10-fold with PBS and mixed to prepare a colorant dispersion I with a concentration of 2 μM.
Here, the method of mixing the colorant solution and the PBS is not particularly limited, and for example, a method of adding a colorant solution to PBS is preferable. Mixing may be performed separately in a plurality of steps. The method of mixing a colorant solution and PBS is not particularly limited, and a method that can quickly achieve a uniform mixing state is desirable. As an example of the mixing method, mixing can be performed by well-known methods such as stirring with a stirrer, pipetting with a pipette, and using a Vortex mixer. The colorant dispersion I can be obtained, for example, by diluting a colorant solution 10-fold with PBS at 25° C. and mixing by pipetting 10 times or more.
The particle size distribution of the colorant dispersion I obtained as above is measured using a particle size distribution measuring device (Zetasizer Nano ZSP, commercially available from Spectris). It is preferable to measure the average particle size under conditions at 25° C. It is desirable to measure the average particle size within 5 minutes after the colorant dispersion I is prepared.
As the value of the average particle size, values such as a Z average particle size, a number average particle size, a volume average particle size, and an area average particle size can be used. In the present invention, the Z average particle size measured by a dynamic light scattering method is defined as the average particle size of the colorant dispersed component contained in the colorant dispersion I.
After each colorant solution was diluted 10-fold with phosphate buffered saline (PBS) to obtain a colorant dispersion I with a colorant concentration of 2 μM, measurement was performed immediately (within 5 minutes) using a particle size distribution measuring device (Zetasizer Nano ZSP, commercially available from Spectris). The Z average particle size of the colorant fine particles (the colorant dispersed component in the colorant dispersion I) of each colorant for fluorescent labeling was determined based on the following criteria. The determination results are shown in “average particle size” in Table 8.
• 4: Z average particle size 5 nm or more to less than 100 nm • 3: Z average particle size 100 nm or more to less than 300 nm • 2: Z average particle size 300 nm or more to 500 nm or less • 1: Z average particle size more than 500 nm

[2] = system: Hela cells; assay: Evaluation of cell staining: fluorescence intensity by plate reader; assay type: cell-based; conditions: 1 μM colorant, 1 hour, washed, plate reader 780 to 800 nm
Procedure: Each colorant solution was diluted 20-fold with an Eagle's minimum essential medium (commercially available from FUJIFILM Wako Pure Chemical Corporation) to prepare a fluorescent labeling agent containing 1 μM of the colorant for fluorescent labeling.
Hela cells were seeded in a 96-well plate (1×10^4 cells/well), and cultured in an incubator (37° C., 5% CO2-containing Air, humidified environment) for 48 hours using an Eagle's minimum essential medium (commercially available from FUJIFILM Wako Pure Chemical Corporation) containing 10% Fetal Bovine Serum (FBS) and 1% penicillin-streptomycin. Then, the medium was removed, and the fluorescent labeling agent prepared above was added to each well. The sample was left in an incubator for 1 hour, and then washed with the Eagle's minimum essential medium (commercially available from FUJIFILM Wako Pure Chemical Corporation). Using a plate reader (SPARK, commercially available from Tecan Group Ltd.), the fluorescence intensity was measured in a range of 780 to 800 nm, and evaluated based on the following criteria. […] The evaluation results are shown in “fluorescence intensity during cell staining” in Table 8.
• 4: fluorescence intensity measurement value 2,000 or more • 3: fluorescence intensity measurement value less than 2,000 to 1,000 or more • 2: fluorescence intensity measurement value less than 1,000 to 500 or more • 1: fluorescence intensity measurement value less than 500

[3] = Measurement of absorbance retention (A1 in PBS / A0 in dimethyl sulfoxide); assay type: physicochemical; conditions: A1/A0 at maximum-absorption wavelength; 2 μM in PBS vs 2 μM in dimethyl sulfoxide, within 5 minutes
Procedure: The absorbance retention calculated by Formula (I) is calculated as follows.
A colorant solution I is prepared by dissolving the colorant for fluorescent labeling in a soluble organic solvent so that the concentration is 2 μM. The absorption spectrum of the colorant solution I is measured using a spectrophotometer (U-4100, commercially available from Hitachi High-Tech Corporation), and the absorbance A0 at a maximum-absorption wavelength is determined.
In addition, a colorant dispersion II is prepared by dissolving the colorant for fluorescent labeling in a soluble organic solvent so that the concentration is 20 μM, and this is additionally diluted 10-fold with PBS so that the concentration is 2 μM. The absorption spectrum of the colorant dispersion II is measured using a spectrophotometer (U-4100, commercially available from Hitachi High-Tech Corporation), and the absorbance A1 at a maximum-absorption wavelength is determined. It is preferable to measure the absorbance under conditions at 25° C. In addition, it is desirable to measure the absorbance within 5 minutes after the […] is prepared. The colorant dispersion II can be obtained, for example, by diluting a colorant solution 10-fold with PBS at 25° C. and mixing by pipetting 10 times or more.
After each colorant solution was diluted 10-fold with dimethyl sulfoxide to obtain a colorant solution I with a colorant concentration of 2 μM, the absorption spectrum was measured using a spectrophotometer (U-4100, commercially available from Hitachi High-Tech Corporation), and the absorbance A0 at a maximum-absorption wavelength was obtained. In addition, after each colorant solution was diluted 10-fold with phosphate buffered saline (PBS) to obtain a colorant dispersion II with a colorant concentration of 2 μM, the absorption spectrum was measured immediately (within 5 minutes) using the spectrophotometer, and the absorbance A1 at a maximum-absorption wavelength was obtained. Using the obtained values of A0 and A1, the absorbance retention was calculated from Formula (I), and determined based on the following criteria.
• 4: absorbance retention 0.8 or more • 3: absorbance retention less than 0.8 to 0.5 or more • 2: absorbance retention less than 0.5 to 0.3 or more • 1: absorbance retention less than 0.3

Row | Absorbance retention [3] | Compound | Average particle size [1] | Fluorescence intensity during cell staining [2]
1 | 4 (absorbance retention 0.8 or more) | O=C(O)CCOc1ccc(-c2cc3c(o2)=CC2=C(C(F)(F)F)c4cc5oc(-c6ccc(OCCC(=O)O)cc6)cc5n4[B-](F)(F)[N+]=32)cc1 [Colorant for fluorescent labeling 23] | 3 (Z average particle size 100 nm or more to less than 300 nm) | 4 (fluorescence intensity measurement value 2,000 or more)
2 | 4 (absorbance retention 0.8 or more) | O=P(O)(O)CCOc1ccc(-c2cc3c(o2)=CC2=C(C(F)(F)F)c4cc5oc(-c6ccc(OCCP(=O)(O)O)cc6)cc5n4[B-](F)(F)[N+]=32)cc1 [Colorant for fluorescent labeling 24] | 3 (Z average particle size 100 nm or more to less than 300 nm) | 4 (fluorescence intensity measurement value 2,000 or more)
3 | 1 (absorbance retention less than 0.3) | Aluminum 1, 8, 15, 22-tetrakis(phenylthio)-29H, 31H-phthalocyanine chloride [Comparative compound 3] | 1 (Z average particle size more than 500 nm) | 1 (fluorescence intensity measurement value less than 500)

Row | Compound | Absorbance retention [3] | Average particle size [1] | Fluorescence intensity during cell staining [2]
4 | CCCCCCCCCCCCCCCCCCN1/C(=C/C=C/C=C/C=C/C2=[N+](CCCCCCCCCCCCCCCCCC)c3ccccc3C2(C)C)C(C)(C)c2ccccc21.[I-] [Comparative compound 6] | 2 (absorbance retention less than 0.5 to 0.3 or more) | 2 (Z average particle size 300 nm or more to 500 nm or less) | 1 (fluorescence intensity measurement value less than 500)
